Legend:
mdx mice [1] = assay: Forelimbs grip test and wire test in mdx mice; assay type: in vivo, mouse
Method: Mdx mice were injected intraperitoneally with RTC#13 or vehicle only for three weeks and analyzed two weeks later. In FIG. 19a, muscle strength in treated and untreated mice was determined using the grip test. The top three of five consecutive pulls were averaged to calculate the absolute strength which was then divided by the body weight (BW) in grams. Results were compared to those obtained in wild type (C57) mice. […] (*: p≦0.01; **: p≦0.001). […] (*: p≦0.005; **: p≦0.001).

mdx mice [2] = assay: Serum creatine kinase (CK) in treated mdx mice; assay type: in vivo, mouse; conditions: treated mdx mice vs controls

Question: What does the source list for N=C1NC(=O)C(=Cc2ccc(-c3ccccc3[N+](=O)[O-])o2)S1 [RTC13, 2-imino-5-{[5-(2-nitrophenyl)-2-furyl]methylene}-1,3-thiazolidin-4-one]?
Answer: wire test (mdx mice [1]; compared with DMSO only): able to hold on a wire for much longer; muscle strength, grip test (mdx mice [1]; intraperitoneal for three weeks, analyzed two weeks later): significant recovery in muscle strength; serum creatine kinase (CK) levels (mdx mice [2]): significant difference in the CK levels
